# From US7803769B2 (priority 2006, dated 2010)
# Bridge positions count the residues as written; N and C are the ends. Square brackets hold non-standard residues; d marks the D form. Ends that are not written are not given here. Peptide text beside a SMILES is read from it. 1Nal = N[C@@H](Cc1cccc2ccccc12)C(=O)O
# Experiments:
# [1] = system: thapsigargin-induced IL-2 production in human whole blood
# human Kv1.3 channel = human Kv1.3 channel (Homo sapiens, UniProt P22001); type: cell-based
# human Kv1.3 (CHO) = target: T1, human Kv1.3 (CHO) (Homo sapiens, UniProt P22001); test: cell-based
# T1 construct: expressed in transfected cells
# human Kv1.1 (HEK293) = target: T2, human Kv1.1 (HEK293) (Homo sapiens, UniProt Q09470); test: cell-based
# T2 construct: expressed in transfected cells; host or cells: HEK293
# T2 sequence (Q09470 whole entry): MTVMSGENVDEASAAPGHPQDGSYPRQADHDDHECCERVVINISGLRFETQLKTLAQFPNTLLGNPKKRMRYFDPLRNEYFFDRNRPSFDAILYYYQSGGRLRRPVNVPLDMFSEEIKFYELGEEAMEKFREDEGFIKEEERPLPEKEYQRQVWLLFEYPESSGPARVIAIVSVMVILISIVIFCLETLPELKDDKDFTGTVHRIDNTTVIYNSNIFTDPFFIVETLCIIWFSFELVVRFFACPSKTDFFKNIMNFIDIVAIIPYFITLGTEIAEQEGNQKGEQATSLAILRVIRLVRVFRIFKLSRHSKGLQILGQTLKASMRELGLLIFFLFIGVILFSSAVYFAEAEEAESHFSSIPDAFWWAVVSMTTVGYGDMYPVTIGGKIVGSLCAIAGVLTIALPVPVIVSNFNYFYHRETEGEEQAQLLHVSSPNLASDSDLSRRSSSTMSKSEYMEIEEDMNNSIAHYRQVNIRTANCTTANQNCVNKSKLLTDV
# T1 sequence (P22001 whole entry): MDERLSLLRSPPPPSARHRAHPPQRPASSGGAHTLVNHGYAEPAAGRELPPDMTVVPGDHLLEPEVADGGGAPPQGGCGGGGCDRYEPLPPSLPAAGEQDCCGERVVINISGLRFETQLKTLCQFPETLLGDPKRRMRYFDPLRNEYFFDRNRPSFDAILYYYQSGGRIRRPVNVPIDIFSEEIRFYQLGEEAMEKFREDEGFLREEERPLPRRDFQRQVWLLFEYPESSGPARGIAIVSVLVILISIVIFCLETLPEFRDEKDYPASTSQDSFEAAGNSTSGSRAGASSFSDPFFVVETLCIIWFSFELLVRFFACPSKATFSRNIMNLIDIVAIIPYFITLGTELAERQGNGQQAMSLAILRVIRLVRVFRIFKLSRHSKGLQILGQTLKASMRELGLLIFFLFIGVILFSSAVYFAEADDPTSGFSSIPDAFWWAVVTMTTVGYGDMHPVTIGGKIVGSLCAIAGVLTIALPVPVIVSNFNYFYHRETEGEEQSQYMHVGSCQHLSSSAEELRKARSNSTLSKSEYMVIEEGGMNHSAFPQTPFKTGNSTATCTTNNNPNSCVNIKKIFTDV
# human Kv1.3 channel, sequence (P22001 whole entry): as above
molecule,measurement,setting,value
"CC[C@H](C)[C@@H]1NC(=O)[C@H](CCCCN)NC(=O)[C@@H](NC(=O)[C@H](CCCCN)NC(=O)[C@@H](NC(=O)[C@H](CC(N)=O)NC(=O)[C@@H](NC(=O)[C@@H](NC(=O)[C@@H](NC(=O)CN)C(C)C)[C@@H](C)CC)[C@@H](C)CC)C(C)C)CSSC[C@@H]2NC(=O)[C@H](CCCCN)NC(=O)CNC(=O)[C@H](Cc3ccccc3)NC(=O)[C@H](CCCNC(=N)N)NC(=O)[C@H](CCSC)NC(=O)CNC(=O)[C@H](C)NC(=O)[C@H](CCCCN)NC(=O)[C@H](CCCCN)NC(=O)[C@@H]3CSSC[C@@H](C(=O)N[C@H](C(=O)N4CCC[C@H]4C(=O)N[C@@H](CCCCN)C(=O)O)[C@@H](C)O)NC(=O)[C@H](Cc4c[nH]cn4)NC(=O)[C@H](CSSC[C@H](NC(=O)[C@H](CCC(N)=O)NC(=O)[C@H](CCCNC(=N)N)NC(=O)[C@H](CO)NC1=O)C(=O)N[C@@H](CC(C)C)C(=O)N[C@@H](CCC(=O)O)C(=O)N1CCC[C@H]1C(=O)N3)NC(=O)[C@H](CCCCN)NC(=O)CNC(=O)[C@H](CC(N)=O)NC(=O)[C@H](C)NC2=O [OSK1[Ala-29]] (H-GVIINVKCKISRQCLEPCKKAGMRFGKCANGKCHCTPK-OH; disulfide 8-28, 14-33, 18-35)","whole blood cytokine response (IL-2 and IFNg), blockade in words",[1],several orders of magnitude more potent
Fc-L10-OSK1[K7S]: Fc-L10-OSK1 with lysine to serine at position 7,difference in Kv1.3 potency compared to Fc-L10-OSK1,human Kv1.3 channel,2 fold
same,fold less potent than the synthetic OSK1 toxin peptide (Kv1.3),human Kv1.3 channel,approximately 10 fold
"SEQ ID No: 4989: OSK1 analog without beta strand 1 (des 1-7), Table 42 (CKISRQCLKPCKDAGMRFGKCMNGKCHC-NH2; ends and bridges not checked)","whole blood cytokine response (IL-2 and IFNg), blockade in words",[1],still retain activity in blocking inflammation
"CC[C@H](C)[C@@H]1NC(=O)[C@H](CCCCN)NC(=O)[C@@H](NC(=O)[C@H](CCCCN)NC(=O)[C@@H](NC(=O)[C@H](CC(N)=O)NC(=O)[C@@H](NC(=O)[C@@H](NC(=O)[C@@H](NC(=O)CN)C(C)C)[C@@H](C)CC)[C@@H](C)CC)C(C)C)CSSC[C@@H]2NC(=O)[C@H](CCCCN)NC(=O)CNC(=O)[C@H](Cc3ccccc3)NC(=O)[C@H](CCCNC(=N)N)NC(=O)[C@H](CCSC)NC(=O)CNC(=O)[C@H](C)NC(=O)[C@H](CCCCN)NC(=O)[C@H](CCCCN)NC(=O)[C@@H]3CSSC[C@@H](C(=O)N[C@H](C(=O)N4CCC[C@H]4C(=O)N[C@@H](CCCCN)C(=O)O)[C@@H](C)O)NC(=O)[C@H](Cc4c[nH]cn4)NC(=O)[C@H](CSSC[C@H](NC(=O)[C@H](CCC(N)=O)NC(=O)[C@H](CCCNC(=N)N)NC(=O)[C@H](CO)NC1=O)C(=O)N[C@@H](CC(C)C)C(=O)N[C@@H](CCC(=O)O)C(=O)N1CCC[C@H]1C(=O)N3)NC(=O)[C@H](CCCCN)NC(=O)[C@H](Cc1cccc3ccccc13)NC(=O)[C@H](CC(N)=O)NC(=O)[C@H](CCSC)NC2=O [G31Nal] (H-GVIINVKCKISRQCLEPCKKAGMRFGKCMN[1Nal]KCHCTPK-OH; disulfide 8-28, 14-33, 18-35)",IC50,human Kv1.3 (CHO),33.8 pM
same,IC50,human Kv1.1 (HEK293),< 1.52 pM
"CC[C@H](C)[C@@H]1NC(=O)[C@H](CCCCN)NC(=O)[C@@H](NC(=O)[C@H](CCCCN)NC(=O)[C@@H](NC(=O)[C@H](CC(N)=O)NC(=O)[C@@H](NC(=O)[C@@H](NC(=O)[C@@H](NC(=O)CN)C(C)C)[C@@H](C)CC)[C@@H](C)CC)C(C)C)CSSC[C@@H]2NC(=O)[C@H](CCCCN)NC(=O)[C@H](Cc3cccc4ccccc34)NC(=O)[C@H](Cc3ccccc3)NC(=O)[C@H](CCCNC(=N)N)NC(=O)[C@H](CCSC)NC(=O)CNC(=O)[C@H](C)NC(=O)[C@H](CCCCN)NC(=O)[C@H](CCCCN)NC(=O)[C@@H]3CSSC[C@@H](C(=O)N[C@H](C(=O)N4CCC[C@H]4C(=O)N[C@@H](CCCCN)C(=O)O)[C@@H](C)O)NC(=O)[C@H](Cc4c[nH]cn4)NC(=O)[C@H](CSSC[C@H](NC(=O)[C@H](CCC(N)=O)NC(=O)[C@H](CCCNC(=N)N)NC(=O)[C@H](CO)NC1=O)C(=O)N[C@@H](CC(C)C)C(=O)N[C@@H](CCC(=O)O)C(=O)N1CCC[C@H]1C(=O)N3)NC(=O)[C@H](CCCCN)NC(=O)CNC(=O)[C@H](CC(N)=O)NC(=O)[C@H](CCSC)NC2=O [G26Nal] (H-GVIINVKCKISRQCLEPCKKAGMRF[1Nal]KCMNGKCHCTPK-OH; disulfide 8-28, 14-33, 18-35)",IC50,human Kv1.3 (CHO),> 3330 pM
same,IC50,human Kv1.1 (HEK293),1570 pM
"CC[C@H](C)[C@@H]1NC(=O)[C@H](CCCCN)NC(=O)[C@@H](NC(=O)[C@H](CCCCN)NC(=O)[C@@H](NC(=O)[C@H](CC(N)=O)NC(=O)[C@@H](NC(=O)[C@H](Cc2cccc3ccccc23)NC(=O)[C@@H](NC(=O)CN)C(C)C)[C@@H](C)CC)C(C)C)CSSC[C@@H]2NC(=O)[C@H](CCCCN)NC(=O)CNC(=O)[C@H](Cc3ccccc3)NC(=O)[C@H](CCCNC(=N)N)NC(=O)[C@H](CCSC)NC(=O)CNC(=O)[C@H](C)NC(=O)[C@H](CCCCN)NC(=O)[C@H](CCCCN)NC(=O)[C@@H]3CSSC[C@@H](C(=O)N[C@H](C(=O)N4CCC[C@H]4C(=O)N[C@@H](CCCCN)C(=O)O)[C@@H](C)O)NC(=O)[C@H](Cc4c[nH]cn4)NC(=O)[C@H](CSSC[C@H](NC(=O)[C@H](CCC(N)=O)NC(=O)[C@H](CCCNC(=N)N)NC(=O)[C@H](CO)NC1=O)C(=O)N[C@@H](CC(C)C)C(=O)N[C@@H](CCC(=O)O)C(=O)N1CCC[C@H]1C(=O)N3)NC(=O)[C@H](CCCCN)NC(=O)CNC(=O)[C@H](CC(N)=O)NC(=O)[C@H](CCSC)NC2=O [I3Nal] (H-GV[1Nal]INVKCKISRQCLEPCKKAGMRFGKCMNGKCHCTPK-OH; disulfide 8-28, 14-33, 18-35)",IC50,human Kv1.3 (CHO),10.3 pM
same,IC50,human Kv1.1 (HEK293),2.34 pM
"CC[C@H](C)[C@@H]1NC(=O)[C@H](CCCCN)NC(=O)[C@@H](NC(=O)[C@H](CCCCN)NC(=O)[C@@H](NC(=O)[C@H](CC(N)=O)NC(=O)[C@@H](NC(=O)[C@@H](NC(=O)[C@@H](NC(=O)CN)C(C)C)[C@@H](C)CC)[C@@H](C)CC)C(C)C)CSSC[C@@H]2NC(=O)[C@H](CCCCN)NC(=O)CNC(=O)[C@H](Cc3ccccc3)NC(=O)[C@H](CCCNC(=N)N)NC(=O)[C@H](CCSC)NC(=O)[C@H](Cc3cccc4ccccc34)NC(=O)[C@H](C)NC(=O)[C@H](CCCCN)NC(=O)[C@H](CCCCN)NC(=O)[C@@H]3CSSC[C@@H](C(=O)N[C@H](C(=O)N4CCC[C@H]4C(=O)N[C@@H](CCCCN)C(=O)O)[C@@H](C)O)NC(=O)[C@H](Cc4c[nH]cn4)NC(=O)[C@H](CSSC[C@H](NC(=O)[C@H](CCC(N)=O)NC(=O)[C@H](CCCNC(=N)N)NC(=O)[C@H](CO)NC1=O)C(=O)N[C@@H](CC(C)C)C(=O)N[C@@H](CCC(=O)O)C(=O)N1CCC[C@H]1C(=O)N3)NC(=O)[C@H](CCCCN)NC(=O)CNC(=O)[C@H](CC(N)=O)NC(=O)[C@H](CCSC)NC2=O [G22Nal] (H-GVIINVKCKISRQCLEPCKKA[1Nal]MRFGKCMNGKCHCTPK-OH; disulfide 8-28, 14-33, 18-35)",IC50,human Kv1.3 (CHO),> 3330 pM
same,IC50,human Kv1.1 (HEK293),426 pM
"CC[C@H](C)[C@@H]1NC(=O)[C@H](CCCCN)NC(=O)[C@@H](NC(=O)[C@H](CCCCN)NC(=O)[C@@H](NC(=O)[C@H](CC(N)=O)NC(=O)[C@@H](NC(=O)[C@@H](NC(=O)[C@@H](NC(=O)CN)C(C)C)[C@@H](C)CC)[C@@H](C)CC)C(C)C)CSSC[C@@H]2NC(=O)[C@H](CCCCN)NC(=O)CNC(=O)[C@H](Cc3ccccc3)NC(=O)[C@H](CCCNC(=N)N)NC(=O)[C@H](CCSC)NC(=O)CNC(=O)[C@H](C)NC(=O)[C@H](CCCCN)NC(=O)[C@H](CCCCN)NC(=O)[C@@H]3CSSC[C@@H](C(=O)N[C@H](C(=O)N4CCC[C@H]4C(=O)N[C@@H](CCCCN)C(=O)O)[C@@H](C)O)NC(=O)[C@H](Cc4c[nH]cn4)NC(=O)[C@H](CSSC[C@H](NC(=O)[C@H](Cc4cccc5ccccc45)NC(=O)[C@H](CCCNC(=N)N)NC(=O)[C@H](CO)NC1=O)C(=O)N[C@@H](CC(C)C)C(=O)N[C@@H](CCC(=O)O)C(=O)N1CCC[C@H]1C(=O)N3)NC(=O)[C@H](CCCCN)NC(=O)CNC(=O)[C@H](CC(N)=O)NC(=O)[C@H](CCSC)NC2=O [Q13Nal] (H-GVIINVKCKISR[1Nal]CLEPCKKAGMRFGKCMNGKCHCTPK-OH; disulfide 8-28, 14-33, 18-35)",IC50,human Kv1.3 (CHO),13.4 pM
same,IC50,human Kv1.1 (HEK293),< 1.52 pM
"Fc-L10-OSK1[K7S,E16K,K20D]: Fc-L10-OSK1 with K7S, E16K and K20D substitutions",block of human Kv1.3 current (in words),human Kv1.3 channel,significant decrease in potency as well as selectivity
same,fold less potent than the synthetic OSK1 toxin peptide (Kv1.3),human Kv1.3 channel,approximately 21 fold
"FcLoop-L2-OsK1-L2: OsK1 inserted into the human IgG1 Fc-loop with 2-Gly linkers on both sides (protein, Definition of Artificial Sequence: Synthetic protein) MDKTHTCPPCPAPELLGGPSVFLFPPKPKDTLMISRTPEVTCVVVDVSHEDPEVKFNWYVDGVEVHNAKTKPREEQYNSTYRVVSVLTVLHQDWLNGKEYKCKVSNKALPAPIEKTISKAKGQPREPQVYTLPPSRDELGGGVIINVKCKISRQCLEPCKKAGMRFGKCMNGKCHCTPKGGTKNQVSLTCLVKGFYPSDIAVEWESNGQPENNYKTTPPVLDSDGSFFLYSKLTVDKSRWQQGNVFSCSVMHEALHNHYTQKSLSLSPGK","whole blood cytokine response (IL-2 and IFNg), blockade in words",[1],"potent blockade of the whole blood cytokine response in this assay, with IC50 values in the pM range"
"FcLoop-L2-ShK-L2: ShK inserted into the human IgG1 Fc-loop with 2-Gly linkers on both sides (protein, Definition of Artificial Sequence: Synthetic protein) MDKTHTCPPCPAPELLGGPSVFLFPPKPKDTLMISRTPEVTCVVVDVSHEDPEVKFNWYVDGVEVHNAKTKPREEQYNSTYRVVSVLTVLHQDWLNGKEYKCKVSNKALPAPIEKTISKAKGQPREPQVYTLPPSRDELGGRSCIDTIPKSRCTAFQCKHSMKYRLSFCRKTCGTCGGTKNQVSLTCLVKGFYPSDIAVEWESNGQPENNYKTTPPVLDSDGSFFLYSKLTVDKSRWQQGNVFSCSVMHEALHNHYTQKSLSLSPGK","whole blood cytokine response (IL-2 and IFNg), blockade in words",[1],"potent blockade of the whole blood cytokine response in this assay, with IC50 values in the pM range"
